Data as given in patent US8012944B2, “Method for treating cancer using IAP antisense oligomer and chemotherapeutic agent” (Pharmascience Inc., priority 2003, dated 2011).
d = 2'-deoxy (DNA); m = 2'-O-methyl

Assays:
Assay type in all cases: cell-based, human
[1] = system: T24 bladder carcinoma cells; assay: Total cellular protein in transfected T24 cells; settings: first screen
Experimental: (§1) At day 3, XIAP RNA levels were measured using quantitative real-time PCR techniques, as described above. At day 4, XIAP protein levels were measured by ELISA (FIGS. 1A, 1C, 1E, 1G, 1I, and 1K), and total cellular protein was measured biochemically (FIGS. 1B, 1D, 1F, 1H, 1J, and 1L; used to normalize the XIAP protein levels). The results were compared to a mock transfection sample (treated with the transfection agent but no oligonucleotide DNA was added, and then processed as for the other samples). Time course experiments determined that the optimal time for protein knock-down to be around 12 to 24 hours.
These nucleobase oligomers were also examined for their ability to decrease XIAP mRNA levels at 12 hours, normalized against GAPDH levels, and compared to mock transfection. Total protein concentrations at 12 hours were also determined (FIG. 2C).

[2] = system: XIAP protein; assay: XIAP protein knock-down in T24 cells (XIAP ELISA, relative to total protein); settings: for XIAP protein levels relative to total protein, compared to mock transfection (in words): first screen of the library
Source text: (§2) We used TaqMan quantitative PCR (described below) to assay for changes in mRNA levels after oligonucleotide treatment. We employed ELISA for determining XIAP protein levels and western blotting for determining HIAP1 protein levels. Transfection conditions were optimized with Lipofectamine plus or Lipofectamine 2000 (Life Technologies, Canada) on T24 bladder carcinoma cells or H460 non-small cell lung carcinoma cells, or lipofectin on SF-295 glioblastoma cells, using a fluorescein-tagged sense oligonucleotide (5′-mGmAGAAGATGACTGGTAAmCmA-3′; SEQ ID NO: 261) from XIAP spanning the start codon as a control. The results were visualized and gauged by epi-fluorescence microscopy. In the case of T24 cells, transfections were further optimized based on the ability of a published oligonucleotide to downregulate survivin expression (Li et al., Nat. Cell Biol. 1:461-466, 1999) (5′-U/TGTGCTATTCTGTGAAU/TU/T-3′ SEQ ID NO: 262). We optimized the transfection conditions based on the TaqMan results of survivin RNA knock-down detected with PCR primers and fluorescent probe, described in detail below. […] We then applied these conditions to screen for XIAP protein knock-down using the oligo library against T24 cells.
A standard colorimetric XIAP ELISA assay was performed using an affinity-purified rabbit polyclonal antibody to XIAP as a capture antibody, and was detected with a XIAP monoclonal antibody (MBL, Japan) and a biotinylated anti-mouse Ig antibody and horseradish peroxidase-conjugated streptavidin and TMB substrate. Alternatively, a polyclonal XIAP or HIAP1 antibody may be used to measure XIAP or HIAP1 protein levels, respectively.
The XIAP synthetic library of 96 antisense oligonucleotides was first screened for decreases in XIAP protein levels. Specifically, T24 cells (1.5×10^4 cells/well) were seeded in wells of a 96-well plate on day 1, and were cultured in antibiotic-free McCoy's medium for 24 hours. On day 2, the cells were transfected with XIAP antisense oligonucleotides as described above (oligonucleotides are labeled according to their plated position, i.e., A1 to H12, and include two repeats, A13 and B13 that contain lyophilized DNA pellets that stuck to the sealing membrane). Briefly, the nucleobase oligomers were diluted in 10 μl/well of serum-free, antibiotic-free McCoy's medium and then PLUS reagent was added. Lipofectamine was diluted in 10 μl/well of serum-free, antibiotic-free McCoy's medium, and both mixes were incubated for 15 minutes at room temperature. The mixes were then combined and incubated for 15 minutes at room temperature.
In the meantime, the complete medium was removed from the cells and 50 μl/well of serum-free, antibiotic-free medium was added to the cells. The transfection mixes were added to the well, and the cells were incubated for three hours. Then 30 μl/well of serum-free, antibiotic-free medium and 100 μl/well of antibiotic-free complete medium, containing 20% fetal bovine serum were added to each well.
as §1, with “hours. […]” for “hours.”

[3] = system: T24 bladder carcinoma cells; assay: T24 cell viability and chemosensitization (WST-1 tetrazolium dye assay); settings: adriamycin 0.5 μg/ml for 20 hours after transfection, vs oligonucleotide alone
Experimental: T24 cells were transfected with XIAP antisense oligonucleotides, scrambled oligonucleotides, no oligonucleotides (mock transfected), or were left untreated. The cells were tested for viability 20 hours after transfection (with the exception of the untreated control) using the WST-1 tetrazolium dye assay in which WST-1 tetrazolium dye is reduced to a colored formazan product in metabolically active cells (FIG. 5A).
To examine the effects of the nucleobase oligomers on the chemosensitization of the T24 cells to cisplatin or adriamycin, oligonucleotides were tested for their ability to further kill T24 cells in the presence of a fixed dose of adriamycin (0.5 μg/ml). Cells were first transfected with a oligonucleotide, then adriamycin was added for another 20 hours. Viability was measured by WST-1 at the end of the 20-hour drug treatment (FIG. 5B). Results are shown in FIG. 5C as percentage viability compared to nucleobase oligomer treatment alone.

[4] = system: XIAP RNA; assay: XIAP RNA knock-down in T24 cells (TaqMan quantitative PCR)
Source text: as §2
RNA was extracted from cells lysed in RLT buffer (QIAGEN, Valencia, Calif.), and purified using QIAGEN RNeasy columns/kits. Real-time quantitative PCR was performed on a Perkin-Elmer ABI 7700 Prism PCR machine. RNA was reverse transcribed and amplified according to the TaqMan Universal PCR Master Mix protocol of PE Biosystems, using primers and probes designed to specifically recognize XIAP, HIAP1, survivin, or GAPDH. For human survivin, the forward primer was 5′-[…]-3′ (SEQ ID NO: 263), the reverse primer was 5′-GAAAGGAAAGCGCAACCG-3′ (SEQ ID NO: 264), and the probe was 5′-(FAM)[…](TAMRA)-3′ (SEQ ID NO: 265). For human HIAP1, the forward primer was 5′-[…]-3′ (SEQ ID NO: 266), the reverse primer was 5′-[…]-3′ (SEQ ID NO: 267), and the probe was 5′-(FAM)[…](TAMRA)-3′ (SEQ ID NO: 268). For human XIAP, the forward primer was 5′-[…]-3′ (SEQ ID NO: 269), the reverse primer was 5′-[…]-3′ (SEQ ID NO: 270), and the probe was 5′-(FAM)[…](TAMRA)-3′ (SEQ ID NO: 271). For human GAPDH, the forward primer was 5′-GAAGGTGAAGGTCGGAGTC-3′ (SEQ ID NO: 272), the reverse primer was 5′-GAAGATGGTGATGGGATTC-3′ (SEQ ID NO: 273), and the probe was 5′-(JOE)[…](TAMRA)-3′ (SEQ ID NO: 274). FAM is 6-carboxyfluoroscein, JOE is 6-carboxy-4,5-dichloro-2,7-dimethoxyfluoroscein, and TAMRA is 6-carboxy-N,N,N′,N′-tetramethylrhodamine. FAM and JOE are 5′ reporter dyes, while TAMRA is a 3′ quencher dye.
Relative quantification of gene expression was performed as described in the PE Biosystems manual using GAPDH as an internal standard. The comparative Ct (cycle threshold) method was used for relative quantitation of IAP mRNA levels compared to GAPDH mRNA levels. Briefly, real-time fluorescence measurements were taken at each PCR cycle and the threshold cycle (Ct) value for each sample was calculated by determining the point at which fluorescence exceeded a threshold limit of 30 times the baseline standard deviation. The average baseline value and the baseline SD are calculated starting from the third cycle baseline value and stopping at the baseline value three cycles before the signal starts to exponentially rise. The PCR primers and/or probes for the specific IAPs were designed to span at least one exon-intron boundary separated by 1 kb or more of genomic DNA, to reduce the possibility of amplifying and detecting genomic DNA contamination. The specificity of the signal, and possible contamination from DNA, were verified by treating some RNA samples with either DNase or RNase, prior to performing the reverse transcription and PCR reaction steps.
The XIAP synthetic library of 96 antisense oligonucleotides was first screened for decreases in XIAP protein levels. […]

[5] = system: XIAP mRNA; assay: XIAP mRNA knock-down in H460 cells (real-time RT-PCR / TaqMan)
In short: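 NCI-H460 cells transfected with phosphorothioate antisense oligonucleotides via Lipofectamine 2000; RNA isolated after 6 h treatment. XIAP mRNA quantified by one-step TaqMan real-time RT-PCR, comparative Ct (threshold 30× baseline SD), normalized to GAPDH and expressed relative to untreated control cells.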

[6] = system: XIAP mRNA; assay: as above; settings: 2 × 2 MBO; NCI-H460 cells, 9 hours post-transfection; relative level (mock control 1.01)

| Sequence | total protein (toxic or cytostatic effect) [1] | XIAP protein levels relative to total protein, compared to mock transfection (in words) [2] | further drop in survival with adriamycin [3] [%] | XIAP down-regulation T24 protein [2] [%] | XIAP down-regulation T24 RNA [4] [%] | XIAP down-regulation H460 RNA [5] [%] | XIAP RNA [6] |
| --- | --- | --- | --- | --- | --- | --- | --- |
| GACACTCCTCAAGTGAATG (antisense; sugars from the 5' end m2 d15 m2, backbone, methylation of C and T or U not given here; further chemistry not fully specified) [Code C9] | clear drop | no relative drop |  |  |  |  |  |
| ATCTTCTCTTGAAAATAGG (sugars from the 5' end m2 d15 m2, linkages s1 o16 s1 (s phosphorothioate, o phosphodiester), T or U not given here) [Code F3] |  | some decrease | 40 | 53 | 44 |  |  |
| GATTCACTTCGAATATTAA (sugars from the 5' end m2 d15 m2, linkages s1 o16 s1 (s phosphorothioate, o phosphodiester), methylation of C not given here) [Code D7] |  | some decrease | 40 | 88 | 56 | 46 |  |
| AGTTAAATGAATATTGTTT (antisense; sugars from the 5' end m2 d15 m2, backbone and T or U not given here; further chemistry not fully specified) [Code B9] | clear drop | no relative drop |  |  |  | 38 | 0.74 |
